Measured values published in patent US20260365698A1, “STAPLED PEPTIDES FOR SENSITIZATION OF CANCER TO TREATMENT” (Purdue Research Foundation, priority 2022, published 2026).
“Also recorded” adds a separate entry of the source. Bridge positions count the residues as written; N and C are the ends. Square brackets hold non-standard residues; d marks the D form. Peptide text beside a SMILES is read from it. S5 = C=CCCC[C@](C)(N)C(=O)O

Legend:
proteinase K = assay: Proteinase K peptide stability assay; conditions: 55 μM peptide, 10 μg/mL proteinase K; some significant degradation
Procedure: Data are from three independent replicates with standard error indicated. Scale bar indicates 50 μm.
Peptide stability assays were performed using the protocols described in Cromm et al., Protease-resistant and cell-permeable double-stapled peptides targeting the Rab8a GTPase, ACS Chemical Biology 11(8): 2375-2382 (2016). Briefly, 55 μM of peptide was incubated with 10 μg/mL proteinase K for the indicated timepoints. At the end of each time point, 50 μL of the reaction mixture were quenched in 100 μL of a 1:1 mixture acetonitrile/water+1% formic acid (FA). Samples were injected and analyzed on a Triple quad. Analysis was done using an Agilent Technologies 1200 Series attached to an Agilent Technologies 6460 Triple Quad LC/MS. Analysis was performed with a ZORBAX XDB-C18 […], 2.1×50 mm column (Agilent Technologies, Inc., Santa Clara, CA). Eluent A: H2O with 0.1% FA. Eluent B: MeCN with 0.1% FA. Purity analysis utilized the gradient as follows: (A:B, 0.3 mL/min): 95:5, 0 minutes; 95:5, 1 minute; 5:95, 5 minutes; 5:95, 8 minutes: 95:5, 8.5 minutes; 95:5, 12.5 minutes.

[1] = system: A549 non-small cell lung cancer cells; assay: Incucyte live-cell analysis of combination with cisplatin; synergy by Chou-Talalay method; format: cell-based; conditions: relatively low concentrations of cisplatin, varying concentrations of N1S
Procedure: Cl values<1 were synergistic (red), CI values=1 were additive (green), and CI values>1 were antagonistic (not observed).
NTS, cisplatin, or a combination thereof. Error bars represent the standard deviation between three technical replicates. The data are representative of three independent experiments.
(§1) The ability of compound N1S to increase sensitivity to chemotherapeutics was examined. A549 non-small cell lung cancer cells were seeded into a Corning® 96-Well Cell Culture Plate (clear, sterile, non-treated) and incubated for 24 hours. The cells were treated with cisplatin alone, compound NIS alone, or in combination. Immediately following treatment, the cells were placed into an Incucyte® S3 Live-Cell Analysis Instrument (Sartorius AG, Gottingen, Germany) and imaged every two hours for three days. The Incucyte® S3's analytical software was used to calculate cell confluency at each time point. Synergy was determined using the Chou-Talalay method.

MafG [2] = target: T1, MafG (Homo sapiens, UniProt O15525); assay: Immunoprecipitation (biotinylated pull-down) assay; format: binding; conditions: 20-fold unlabeled N1S
T1 construct: made in house; host or cells: E. coli Rosetta (DE3), vector pET15B, Ni-NTA purified
T1 sequence (O15525 whole entry): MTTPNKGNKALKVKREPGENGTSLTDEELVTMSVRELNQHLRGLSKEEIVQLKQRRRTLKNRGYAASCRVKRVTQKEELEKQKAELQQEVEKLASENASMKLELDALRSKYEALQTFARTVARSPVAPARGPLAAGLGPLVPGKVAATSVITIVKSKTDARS
Procedure: To show direct interaction between compound NIS and MafG, an immunoprecipitation assay was carried out with His-tagged, purified MafG and biotin-labeled compound NTS peptide. Briefly, a Pierce™ Biotinylated Protein Interaction Pull-Down Kit was purchased from Thermo Fisher, and manufacturer's instructions were followed. Purified His-tagged MafG and biotin-tagged NIS were used as […] proteins. For competition experiments, 20× unlabeled NIS was added after 1 hour incubation with MafG.

[3] = target: T2, Nrf2-MafG-DNA ARE complex (Homo sapiens, UniProt O15525); assay: Fluorescence polarization assay with Nrf2, MafG and FAM-labeled ARE; format: biochemical; conditions: 200 nM His-MBP-NRF2, 200 nM His-MafG, 20 nM FAM-labeled ARE; 'as low as'
T2 construct: listing gives 93-aa segments
T2 sequence (O15525 whole entry, one chain of several): as the sequence (O15525 whole entry) above
Procedure: Briefly, a 96-well plate (VWR® Solid Bottom Assay Plates, 96-well, black) was used to encapsulate each fluorescence polarization reaction. Unless otherwise stated (i.e., ARE only, ARE+MafG), each 100-μL reaction contained 200 nM purified recombinant His-MBP-NRF2, 200 nM purified recombinant His-MafG, various concentrations of molecule, and 20 nM 5′ FAM-labeled ARE all together in 1× PBS solution.
First, NRF2 was incubated with molecule for 5 minutes with shaking, followed by the addition of MafG for another 5-minute incubation. Finally, ARE was added, and the MafG-NRF2-ARE system was incubated for 10 minutes with shaking. After incubation, the plate was placed into a plate reader (Molecular Devices SpectraMax® iD5 Multi-Mode Microplate Reader). The fluorescence polarization measurement was performed at excitation/emission values of 470:525 nm, respectively. The samples were in triplicate (n=3).

[4] = system: glutathione (GSH) in A549 cells; assay: GSH-Glo glutathione quantification; format: cell-based; conditions: 24 hours
Procedure: Data are from three independent experiments with standard deviation. ****p<0.0001, one-way ANOVA.
The manufacturer's instructions were followed. Cells were plated at a density of 20,000 cells/ml and treated with various concentrations of NIS for 24 hours.

MafG [5] = target: T1, MafG; assay: Surface plasmon resonance (SPR); format: binding
Procedure: To determine the affinity of binding between MafG and compound NIS, surface plasmon resonance (SPR) was performed with biotin-labeled compound NIS and His-MafG. For all SPR-binding measurements, a Biacore 100-Instrument (Biacore-GE) was used. Binding between MafG and biotin-labeled compound NIS peptide was performed by first immobilizing the biotin N1S peptide on a SA chip (Cytiva, Marlborough, MA). The binding buffer (150 mM NaCl, 10 mM HEPES, pH 7.5, 1 mM MgCl2, 1 mM […] (TCEP) and 0.05% P-20) was used. Biotin-compound NIS (1 μM) was injected at a rate of 10 μl min^−1 for 10 minutes, immobilizing approximately 528 response units. Increasing concentrations of MafG (two-fold dilutions between 2.5 μM and 0.100 μM, including two blanks) were subsequently passed over the Biotin-compound N1S functionalized chip as well as a streptavidin reference surface. Multiple cycle analysis was carried out, without regenerating the chip between different MafG concentrations. Binding data was reference normalized and processed using Prism software, A one-site binding model was applied to the processed data set to determine binding parameters of MafG binding to N1S.

[6] = system: A549 non-small cell lung cancer cells; assay: MTT assay / live cell growth, combination with cisplatin; format: cell-based
Procedure: Percent dead in red color indicates higher percentage of death. Data are representative of three independent replicates.
as §1
Additionally, an MTT assay was performed on the plate of cells from the Incucyte® study, and a separate, identical plate of cells was incubated for 24 hours. MTT reagent (20 μL of 5 mM stock) was added to each well and incubated for three hours at 37 °C. Following incubation, the plate was spun down at 2,500 rpm for five minutes at room temperature and then aspirated to remove the media. […] The absorbance of each well was measured at 570 nm using a plate reader (Molecular Devices SpectraMax® iD5 Multi-Mode Microplate Reader). […]

time at which significant degradation starts (proteinase K): 24 h | competition of N1S-biotin/MafG interaction by unlabeled peptide (MafG [2]): could be competed away | lowest concentration decreasing binding of the heterodimer to the DNA [3]: 0.2 µM | Kd (MafG [5]; biotin-labeled N1S on SA chip, His-MafG passed over, one-site binding model, read-out: dissociation constant): 337 nM | direct binding to MafG (MafG [5]; summary of in vitro analysis): directly binds MafG
SMILES: CC[C@H](C)[C@H](NC(C)=O)C(=O)N[C@H](C(=O)N[C@@H](CCC(=O)O)C(=O)N[C@@H](CC(C)C)C(=O)N[C@@H](CCC(=O)O)C(=O)N[C@@]1(C)CCCC=CCCC[C@@](C)(C(=O)N[C@@H](CC(C)C)C(=O)N[C@@H](CCCCN)C(=O)N[C@@H](CC(=O)O)C(=O)N[C@@H](CCC(=O)O)C(=O)N[C@@H](CCCCN)C(=O)N[C@@H](CCC(=O)O)C(N)=O)NC(=O)[C@H](CC(=O)O)NC(=O)[C@H](CC(C)C)NC(=O)[C@H](CC(=O)O)NC1=O)C(C)C [N1S] (Ac-IVELE[S5]DLD[S5]LKDEKE-NH2; staple 6-10)
synergy with cisplatin [1]: synergy was observed; also recorded: strong synergy | glutathione (GSH) levels [4]: Significant reductions | growth compared to either treatment alone ([6]; 50 μM N1S combined with 6 μM cisplatin): greatly reduced levels of growth | sensitization of cancer cell lines to chemotherapeutics ([6]; combination with cisplatin): can greatly sensitize cancer cell lines to chemotherapeutics
